Experimental data published in patent publication US20060148730A1, “Method of treating tuberculosis” (priority 2003, published 2006).
Converted amounts (≈) assume the structure as drawn. “Also recorded” adds a separate entry of the source. Where two headings read alike, the source gives them in different places.

Columns and labels:
M. tuberculosis H37Rv [1] = assay: MIC vs. M. tuberculosis H37Rv, microplate Alamar Blue assay (MABA); type: cell-based; conditions: for enhancement in potency of macrolide over counterpart ketolide: MIC ratio ketolide/macrolide; for anti-TB activity / MIC in words: result in words
M. tuberculosis = conditions: literature (Luna-Herrera 1995; Truffot-Pernot 1995); cited from earlier work
VERO cells [2] = assay: Cytotoxicity against VERO cells (MTS, 72 hours); conditions: for in vitro toxicity / cytotoxicity in words: result in words; for IC50: Chlorocebus sabaeus, Vero
[3] = Overt toxicity in mice, escalating 5-day dosing cycles; type: in vivo, Balb/C mice; conditions: once daily, 5-day cycles, sequentially 200, 300, 400, 500 mg/kg
Description: Prior to assessing in vivo efficacy, RU66252 and RU69874 were administered to pairs of female Balb/C mice once daily for 5-day cycles, and observed for overt signs of toxicity (e.g., weight loss, ruffled fur, and huddling), after which the mice were rested for 1 or 2 days. Then the dosage was increased for another 5-day cycle. Overall, the same mice received sequentially for 5 days: 200, 300, 400, and 500 mg/kg.

[4] = system: J774.1 macrophage cell line; assay: Cytotoxicity against J774.1 macrophage cell line; type: cell-based, murine; conditions: Mus musculus
M. tuberculosis Erdman = type: in vivo, BALB/c mice
M. tuberculosis H37Rv [5] = conditions: cited from earlier work
VERO cells [6] = system: VERO cells
[7] = Mycobacterium tuberculosis, H37RV, Table 1a, 11,12-carbamate derivatives, anti-TB activity, read-out: MIC

What does the source list for CC[C@H]1OC(=O)[C@H](C)[C@@H](O[C@H]2C[C@@](C)(OC)[C@@H](O)[C@H](C)O2)[C@H](C)[C@@H](O[C@@H]2O[C@H](C)C[C@H](N(C)C)[C@H]2O)[C@](C)(OC)C[C@@H](C)C(=O)[C@H](C)[C@@H](O)[C@]1(C)O [Clarithromycin, reference compound]?
enhancement in potency of macrolide over counterpart ketolide (M. tuberculosis H37Rv [1]): 16 fold; MIC (M. tuberculosis H37Rv [1]; Table 2a, 11,12-diols, anti-TB activity, read-out: MIC): 8 µM (≈ 5.98 µg/mL); activity in mouse models (M. tuberculosis): marginal and nil

Which “in vitro toxicity / cytotoxicity in words” value (VERO cells [2]) does the source give for CC[C@H]1OC(=O)[C@H](C)[C@@H](O[C@H]2C[C@@](C)(OC)[C@@H](O)[C@H](C)O2)[C@H](C)[C@@H](O[C@@H]2O[C@H](C)C[C@H](N(C)C)[C@H]2O)[C@](C)(OC)C[C@@H](C)C(=O)[C@H](C)[C@H]2N(CCCCn3cnc(-c4cccnc4)c3)C(=O)O[C@]12C [RU69874] here?
The value was “comparable to clarithromycin”.

And the “anti-TB activity / MIC in words” value (M. tuberculosis H37Rv [1])?
The value was “very low”.

And the “signs of overt toxicity (weight loss, ruffled fur, huddling)” value [3]?
The value was “No signs of overt toxicity”.

What does the source list for CC[C@H]1OC(=O)[C@H](C)C(OC2CC(C)(OC)[C@@H](O)[C@H](C)O2)[C@H](C)[C@@H](O[C@@H]2O[C@H](C)C[C@H](N(C)C)[C@H]2O)[C@](C)(OC)C[C@@H](C)C(=O)[C@H](C)[C@H]2N(NCCCc3ccnc4ccccc34)C(=O)O[C@]12C (stereo partly drawn) [RU66252]?
IC50 (VERO cells [2]; read-out: Vero IC50): 24.9 µM; IC50 (VERO cells [2]; read-out: toxicity based on VERO cells): 25 µM; in vitro toxicity / cytotoxicity in words (VERO cells [2]): comparable to clarithromycin; enhancement in potency of macrolide over counterpart ketolide (M. tuberculosis H37Rv [1]): 16 fold; MIC (M. tuberculosis H37Rv [1]; [7]): 0.25 µM (≈ 0.239 µg/mL); MIC (M. tuberculosis H37Rv [1]; Mycobacterium tuberculosis, H37RV, Table 3, parallel-synthesis carbazate library products, SPE purified, read-out: MIC): 9 µM (≈ 8.61 µg/mL); MIC (M. tuberculosis H37Rv [1]; Mycobacterium tuberculosis, H37RV, follow-up assays, read-out: MIC vs. M. tuberculosis in follow-up assays): ~9 µM (≈ 8.61 µg/mL); MIC (M. tuberculosis H37Rv [1]; Mycobacterium tuberculosis, H37RV, read-out: minimum inhibitory concentration (MIC) against M. tuberculosis): 0.25 µM (≈ 0.239 µg/mL); anti-TB activity / MIC in words (M. tuberculosis H37Rv [1]): very low; IC50 ([4]; J774.1, Table 1a, toxicity, read-out: J774 IC50): 16.1 µM; signs of overt toxicity (weight loss, ruffled fur, huddling) [3]: No signs of overt toxicity; activity against M. tuberculosis in the acute phase of infection (M. tuberculosis Erdman; […], 100 and 200 mg/kg qd, untreated controls abnormally low): dose-dependent activity; colonies on 10-2 dilution plates of lung homogenates (M. tuberculosis Erdman; treated mouse lung homogenates): no colonies

With NNC(=O)c1ccncc1 [Isoniazid] as the molecule, how does the “expected MIC range of positive quality control compound” value (M. tuberculosis H37Rv [5]) read?
The value was 0.025 to 0.1 µg/mL.

Which results are given for CC[C@H]1OC(=O)[C@H](C)C(=O)[C@H](C)[C@@H](O[C@@H]2O[C@H](C)C[C@H](N(C)C)[C@H]2O)[C@](C)(OC)C[C@@H](C)C(=O)[C@H](C)[C@H]2N(CCCCn3cnc(-c4cccnc4)c3)C(=O)O[C@]12C [Telithromycin, reference compound]?
MIC (M. tuberculosis H37Rv [1]; [7]): 48 µM (≈ 39 µg/mL); anti-TB activity / MIC in words (M. tuberculosis H37Rv [1]): less active than clarithromycin; IC50 ([4]; J774.1, read-out: J774 IC50): 102 µM; IC50 ([4]; J774.1, read-out: toxicity based on J774 cells): 102 µM

Which “selectivity index (SI), VERO cells” value (VERO cells [2]) does the source give for CCCCCCCCCCN1CCCC(O/N=C2\[C@H](C)C[C@@](C)(OC)[C@H](O[C@@H]3O[C@H](C)C[C@H](N(C)C)[C@H]3O)[C@@H](C)C(=O)[C@@H](C)C(=O)O[C@H](CC)[C@@](C)(O)[C@H](O)[C@H]2C)C1 (stereo partly drawn) [RU60887] here?
The value was 221.

And the “anti-TB activity / MIC in words” value (M. tuberculosis H37Rv [1])?
Its value is “most potent of the tested 9-oxime compounds; also recorded: very low”.

And the “in vitro toxicity / cytotoxicity in words” value (VERO cells [6])?
Its value is “comparable to clarithromycin”.
